Where “and” joins values, the source holds several entries; their conditions need not be identical. Identical values can stand only once.
What was measured:
[1] = test system: Calu1-KRASG13D cells (G12C/G13D); assay: Cell viability assay (CellTiter-Glo), 72 hours, alone or in combination; details: for cell viability: Calu1-KRASG13D, in % (unit assumed)
Protocol: (§1) Cells were seeded into 96-well plates at a density of 1,500 cells per well. […] Upon measurement, 10 μL CCK-8 (Yeasen, 40203ES80) mixed with 100 μL serum-free medium was added to each well and incubated for 1 hour at 37°C. Plates were shaken, and optical density values were determined at 450 nm using a microplate reader (BioTek, Synergy Neo2).
(§2) Combination index was calculated using Compusyn software version 1.0, and the synergistic effects were determined by the Chou-Talalay method ([51]).
(§3) (A and B) Cell viability assays performed with Calu1 cells infected
(§4) with retrovirus packaging KRAS (G12C, G12C/G13D or G12C/Y96D).
measured with CellTiter-Glo.

KRAS-mutant cells = assay: Apoptosis, annexin V and propidium iodide flow cytometry; assay type: cell-based, human; details: 48 hours; concentration-dependent; versus untreated control
Protocol: The Apoptosis Detection Kit (MultiSciences Biotech Co. Ltd.) was used to detect cell death according to the manufacturer’s protocol. After RLY01 treatment, both attached and floating cells were harvested, washed with PBS, suspended in binding buffer, stained in annexin V–allophycocyanin (APC) and propidium iodide (PI), and analyzed by flow cytometry. For each experiment, 1 × 10^6 cells/mL were analyzed by the flow cytometer (BD Biosciences) and analyzed with FlowJo v10.8.1 (BD Biosciences).

[2] = test system: RLY01 binding proteins in whole-cell lysates; assay: Biotin-RLY01 pulldown mass spectrometry
Protocol: Cell lysates were incubated with free biotin (MedChemExpress) or biotin-RLY01 for 3 hours at room temperature with rotation. Subsequently, the prewashed streptavidin agarose beads (Yeasen Biotech) were added to the system as above and incubated 1 hour at room temperature with rotation. The beads were washed 3 times with […] and then were boiled in SDS loading buffer, followed by Western blotting.
LC-MS/MS–based proteomics analysis was conducted in collaboration with Shanghai Applied Protein Technology Co. Ltd. According to the methods described for streptavidin-biotin affinity pull-down assay, biotin-RLY01 was used to pull down target proteins from the whole-cell lysates. SDS-PAGE gels were stained with Silver Staining kits (Beyotime, P0017S). The entire gel was cut into pieces at the target sites (Supplemental Figure 6F, black arrows), which were destained, reduced, and alkylated, followed by trypsin digestion. The digested peptides were extracted, resuspended in 0.1% formic acid, and analyzed by LC-MS/MS on a Q-Exactive mass spectrometer (Thermo Electron). The raw MS data for each sample were combined and searched using MaxQuant 1.6.14 software for identification and quantitation analysis. The minimal scores for peptide and protein were set as 20 and 50, respectively. The FDR was set to 0.01 for analysis.

HLF1 cells = assay: Cell viability assay (CCK-8); assay type: cell-based; details: Homo sapiens; HLF1 (Normal cells); 72 hours
Protocol: as §1

PC9 cells = assay: Cell viability assay (CCK-8); assay type: cell-based; details: Homo sapiens, PC-9; PC9, Lung; Supplemental Table 4
Protocol: Cells were seeded into 96-well plates at a density of 1,500 cells per well. Cells were then cultivated at 37°C for different periods (0 hours, 24 hours, 48 hours, 72 hours, 96 hours). Upon measurement, 10 μL CCK-8 (Yeasen, 40203ES80) mixed with 100 μL serum-free medium was added to each well and incubated for 1 hour at 37°C. Plates were shaken, and optical density values were determined at 450 nm using a microplate reader (BioTek, Synergy Neo2).

p21 = p21 protein stability screen in HeLa cells (Western blot); assay type: cell-based; details: listed as compound 85
Protocol: Thus, on the basis of this pocket (Figure 4B), a structure-based virtual screen of the 220,000 compounds in the SPECS library (https://www.specs.net) was carried out. We selected 100 candidate compounds with diverse chemical scaffolds from among the top 2,000 candidate compounds with the highest docking scores (Supplemental Figure 6A) and then devised a screening pipeline to assess their binding efficacy. Initially, the ability of the 100 selected compounds to increase the protein stability of p21, which is degraded in a REGγ-dependent manner, in HeLa cells at an initial concentration of 30 μM was evaluated. The top 2 compounds (compounds 85 and 98) were considered hits (Supplemental Figure 6, B and C) and subsequently subjected to a rescreening process using a cell-free proteolysis assay to determine whether they could selectively interfere with peptidase activity stimulated directly by REGγ (Figure 4C). […] Ultimately, RLY01 (Figure 4E) emerged as the top candidate owing to its specific effects and ability to inhibit REGγ-dependent proteasome substrate hydrolysis in vitro.
Protein extracts were loaded onto SDS polyacrylamide gels. Gels were transferred onto nitrocellulose membranes, and the membranes were blocked for 1 hour. After overnight incubation with primary antibody at 4°C, the membranes were washed and probed with fluorescent IRDye 800 CW goat anti-rabbit IgG (1:10,000), IRDye 800 CW goat anti-mouse (1:10,000), and IRDye 680 RD goat anti-mouse IgG (1:5,000) antibodies (Cell Signaling Technology). The membranes were then imaged with the Odyssey Infrared Imaging System (LI-COR Biosciences). […]

[3] = test system: Calu1-KRASY96D cells (G12C/Y96D); assay: Cell viability assay (CellTiter-Glo), 72 hours, alone or in combination; details: for cell viability: Calu1-KRASY96D, in % (unit assumed)
Protocol: as §1, §2, §3, §4
measured with CellTiter-Glo.

[4] = protein PSMA7 (α7), sample A_1 (sample groups not given)
[5] = protein PSMA7 (α7), sample A_2 (sample groups not given)
[6] = protein PSMA7 (α7), sample B_1 (sample groups not given)
[7] = protein PSMA7 (α7), sample B_2 (sample groups not given)

With COc1ccc(C2C(C#N)=C(N)Oc3[nH]ncc32)cc1COc1ccc(Cl)cc1 (centres unmarked) [RLY01] the cell viability ([1]; 0.390625 μM) was 99.8959 and 99.2847, the cell viability ([1]; 0.78125 μM) was 107.004 and 113.123 and the cell viability ([1]; 1.5625 μM) was 108.207 and 97.3316. The cell viability ([1]; 3.125 μM) was 105.709 and 89.2533, the cell viability ([1]; 6.25 μM) was 86.4232 and 85.9383 and the cell viability ([1]; 12.5 μM) was 57.6642 and 58.1824. The cell viability ([1]; 25 μM) was 16.1234 and 17.3458, the cell viability ([1]; 50 μM) was 9.294 and 9.4468 and the cell viability ([1]; 100 μM) was 9.387 and 9.3007. It also gave a viability at 0.390625 µM ([1]; Homo sapiens, read-out: cell viability, Calu1-KRASG13D, 0.390625 μM) of 114%, a viability at 0.78125 µM ([1]; Homo sapiens, read-out: cell viability, Calu1-KRASG13D, 0.78125 μM) of 110% and a viability at 1.5625 µM ([1]; Homo sapiens, read-out: cell viability, Calu1-KRASG13D, 1.5625 μM) of 102%. The viability at 3.125 µM ([1]; Homo sapiens, read-out: cell viability, Calu1-KRASG13D, 3.125 μM) was 94%, the viability at 6.25 µM ([1]; Homo sapiens, read-out: cell viability, Calu1-KRASG13D, 6.25 μM) was 83.6% and the viability at 12.5 µM ([1]; Homo sapiens, read-out: cell viability, Calu1-KRASG13D, 12.5 μM) was 57.3%. The viability at 25 µM ([1]; Homo sapiens, read-out: cell viability, Calu1-KRASG13D, 25 μM) was 16.5%, the viability at 50 µM ([1]; Homo sapiens, read-out: cell viability, Calu1-KRASG13D, 50 μM) was 9.31% and the viability at 100 µM ([1]; Homo sapiens, read-out: cell viability, Calu1-KRASG13D, 100 μM) was 9.1%. The “apoptosis (number of apoptotic cells)” value (KRAS-mutant cells) was “markedly induced apoptosis”, the “protein precipitated by biotin-RLY01 (mass spectrometry)” value [2] was “effectively precipitated α7” and the iBAQ ([2]; protein PSMA7 (α7) in RLY01 pulldown mass spectrum, over all samples) was 23968000. The “Intensity A_1” value [2, 4] was 17989000, the “iBAQ A_1” value [2, 4] was 1284900 and the “Intensity A_2” value [2, 5] was 2996300. For the same molecule, the “iBAQ A_2” value [2, 5] was 214020, the “Intensity B_1” value [2, 6] was 259310000 and the “iBAQ B_1” value [2, 6] was 18522000. The “Intensity B_2” value [2, 7] was 55262000, the “iBAQ B_2” value [2, 7] was 3947300 and the Intensity ([2]; protein PSMA7 (α7, Proteasome subunit alpha type-7) in RLY01 pulldown mass spectrum, sum over samples) was 335560000. The IC50 (HLF1 cells) was 46.1 µM, the IC50 (PC9 cells) was 29 µM and the “protein stability of p21” value (p21; HeLa cells, 30 μM, 24 h) was “elevate the protein stability of p21 and hits”. For the same molecule, the “Relative p21 expression” value (p21) was 1.097 and 1.003 and 0.9423, the cell viability ([3]; 0.390625 μM) was 109.013 and 124.79 and 101.198 and the cell viability ([3]; 0.78125 μM) was 114.312 and 121.448. For the same molecule, the cell viability ([3]; 1.5625 μM) was 115.364 and 91.5058 and 113.66, the cell viability ([3]; 3.125 μM) was 104.087 and 113.194 and the cell viability ([3]; 6.25 μM) was 87.3918 and 78.2319. For the same molecule, the cell viability ([3]; 12.5 μM) was 88.1108 and 98.7485, the cell viability ([3]; 25 μM) was 37.8911 and 40.008 and the cell viability ([3]; 50 μM) was 16.5224 and 17.0816. The cell viability ([3]; 100 μM) was 16.1363 and 16.3893, the viability at 0.78125 µM ([3]; Homo sapiens, read-out: cell viability, Calu1-KRASY96D, 0.78125 μM) was 104% and the viability at 3.125 µM ([3]; Homo sapiens, read-out: cell viability, Calu1-KRASY96D, 3.125 μM) was 99.3%. It also gave a viability at 6.25 µM ([3]; Homo sapiens, read-out: cell viability, Calu1-KRASY96D, 6.25 μM) of 71.3%, a viability at 12.5 µM ([3]; Homo sapiens, read-out: cell viability, Calu1-KRASY96D, 12.5 μM) of 92.7% and a viability at 25 µM ([3]; Homo sapiens, read-out: cell viability, Calu1-KRASY96D, 25 μM) of 43.6%. It also gave a viability at 50 µM ([3]; Homo sapiens, read-out: cell viability, Calu1-KRASY96D, 50 μM) of 16.3% and a viability at 100 µM ([3]; Homo sapiens, read-out: cell viability, Calu1-KRASY96D, 100 μM) of 16.2%.
